{"source": "patent US5480905A", "about": "“Benzodioxane derivatives” (Chugai Seiyaku Kabushiki Kaisha, priority 1991, dated 1996)", "key": {"[1]": {"conditions": "in vivo; cited from earlier work"}, "[2]": {"tested_on": "S.D. line male rats", "assay": "Antianxiety effect, water drinking under punishment (Vogel)", "assay_type": "in vivo, rat", "set-up": "Antianxiety effect / Antianxiety effect, longevity: unit not given here", "conditions": "peroral 20 mg/kg; for change in vivo at 20 mg/kg: Rattus norvegicus, po, read-out: Antianxiety effect, Efficacy", "protocol": "Antianxiety test was conducted in accordance with a method adapted from the method of Vogel et al. (Psychopharmacol., 21, 1-7, 1971). Stated more specifically, S.D. line male rats weighing 250-300 g were entirely kept from water for 24 h and then placed in a concrete experimental box. […] The bottom of the box was made of a stainless steel grid, from which electric shock (0.2 mA, 0.5 sec) could be applied to the limbs of rats. The test schedule was as follows: first, the rats were acclimatized to the experimental box and trained for drinking water; this was done for 3 min without electric shock. The quantity of water drunk by the rats was then measured (under non-punishment). Then, the rats were kept from drinking water for 24 h. Thereafter, the quantity of water drunk by each rat was measured (before administration of test compound) under such conditions that an electric shock was applied each time a rat drank one water drop (under punishment).Thirty minutes later, a test drug was administered perorally and after an additional 20 min, the quantity of water drunk by each rat was again measured under punishment (after administration of test compound). The quantity of water drunk by rats will decrease under punishment but it is known that the initial level can be restored by administering an antianxiety agent.\nThe antianxiety effect of a test compound was calculated by the following formula: [formula]\n(§1) The procedure of Test Examples 2 and 3 were repeated except that test compounds were administered perorally in a dose of 10 mg/kg.\n(§2) The procedures of Test Example 2 and 3 were repeated, except that test compounds were administered perorally in a dose of 20 mg/kg to check the longevity of their antianxiety and antidepressant effects for 0.5, 2 and 4 h."}, "[3]": {"tested_on": "apomorphine induced stereotypic behavior", "assay": "Antidopamine action, apomorphine induced stereotypic behavior", "assay_type": "in vivo, rat", "conditions": "for Apomorphine Induced Stereotypic Behavior, sum of scores: maximum of 24", "protocol": "Seven-week old male S.D. line rats were administered a test drug perorally and after the passage of 30 min, the dopamine agonist apomorphine was injected subcutaneously in an amount of 0.5 mg/kg. For the subsequent 5-30 min period, the intensity of stereotypic behavior that was induced in the rats by apomorphine was measured six times at 5-min intervals by a scoring method and the sum of the scores was determined (for a maximum of 24)."}, "[4]": {"tested_on": "S.D. line male rats", "assay": "Antidepressant effect, compelled swim test (Porsolt), time over which rats remain motionless", "assay_type": "in vivo, rat", "conditions": "peroral 20 mg/kg; for inhibition in vivo at 20 mg/kg: Rattus norvegicus, po, 0.5 h, 30 min before swim, read-out: Antidepressant effect, Efficacy", "protocol": "An antidepression test was conducted in accordance with the method of Porsolt et al. (Europ. J. Pharmacol., 47, 379-391, 1978). Stated more specifically, 7-wk old S.D. line male rats were placed in a glass cylinder (18 cm^.phi. ×40 cm^H) for 15 min. The cylinder was filled with water (25° C.) to a depth of 15 cm. Thereafter, the rats were placed in a hot environment (32° C.) for 15 min before they were returned to the cage. Twenty-four hours later, the rats were compelled again to swim in the same cylinder for 5 min and the total time over which the rats remained motionless was measured. A test drug was administered perorally to each animal 30 min before it was compelled to swim for 5 min. Antidepressant agents are known to be capable of specifically reducing the time over which the rats would remain motionless (Psyehopharmaeol., 83, 1-16, 1984, and ibid., 94, 147-160, 1988). The antidepressant effect was calculated by the following formula: [formula]\nas §1, §2"}, "[5]": {"target": "T1, serotonin 1A receptor (Rattus norvegicus, UniProt P19327)", "T1 construct": "the cortex and hippocampal tissue were extracted from the brain; from tissue; host or cells: brain cortex and hippocampus of 7-week-old male S.D. rats, washed membrane homogenate", "T1 sequence (P19327 1-422)": "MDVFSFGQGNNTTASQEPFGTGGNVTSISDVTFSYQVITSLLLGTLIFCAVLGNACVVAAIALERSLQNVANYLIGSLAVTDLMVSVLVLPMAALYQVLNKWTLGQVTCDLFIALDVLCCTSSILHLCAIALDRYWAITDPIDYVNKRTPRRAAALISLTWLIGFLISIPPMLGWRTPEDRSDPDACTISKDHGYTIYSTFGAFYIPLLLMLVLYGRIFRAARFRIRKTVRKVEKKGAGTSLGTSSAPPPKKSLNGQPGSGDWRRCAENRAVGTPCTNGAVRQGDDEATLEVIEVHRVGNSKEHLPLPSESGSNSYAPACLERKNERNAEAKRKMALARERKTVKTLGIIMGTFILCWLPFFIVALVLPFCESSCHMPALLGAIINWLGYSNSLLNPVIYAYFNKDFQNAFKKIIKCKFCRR", "assay": "Serotonin 1A receptor binding experiment (3H-8-OH-DPAT)", "conditions": "rat cortex and hippocampal tissue, 0.5 nM 3H-8-OH-DPAT, IC50 in M", "protocol": "(§3) Affinity for intracerebral serotonin 1A and serotonin 2 receptor was checked in accordance with the method of Hall et al. (J. Neurochem., 44, 1685-1695, 1985) and the method of Leysen et al. (Mol. Pharmacol., 21, 301-314, 1982).\n(§4) Stated more specifically, the cortex and hippocampal tissue were extracted from the brain of 7-wk old S.D. line male rats, mixed with 20 volumes of Tris-HCl buffer (50 mM, pH 7.7) and homogenized with a Teflon homogenizer. Thereafter, the homogenate was centrifuged at 39800×g for 20 min and the supernatant was discarded. Forty volumes of a buffer were added to the precipitate and the mixture was homogenized with a Polytron homogenizer, with the homogenate being centrifuged under the same condition as set forth above. The same procedure was repeated two more times and the final precipitate was homogenized with 40 volumes of a buffer; thereafter, the homogenate was stored at least overnight at -80° C. On the day when binding experiments were to be conducted, the homogenate was thawed at room temperature and incubated at 37° C. for 20 min to remove the endogenous serotonin.\n(§5) Thereafter, centrifugation was conducted at 39800×g for 20 min and 40 volumes of a buffer were added to the precipitate, followed by homogenization. This procedure was repeated three times; to the final precipitate, a buffer was added in 65 volumes for the case of serotonin 1A receptor and in 80 volumes for the case of serotonin 2 receptor and the mixture was homogenized in preparation for the binding experiments that are described below. All procedures of experimentation except storage in a frozen state and thawing at room temperature were conducted at 4° C. or below.\nA reaction solution containing 0.5 nM (final concentration) of 3H-8-hydroxy-2-(di-n-propylamino)tetralin (8-OH-DPAT), […] and 500 μl of brain homogenate in 1.0 ml (final volume) of a buffer was incubated at 25° C. for 30 min. Thereafter, the reaction solution was filtered by rapid passage through a glass filler. The filter was washed rapidly with an ice-cooled buffer (3 ml) three times, put into a scintillation vial together with a scintillation cocktail, and left to stand overnight at 4° C. On the next day, the vial was agitated well and measurements were conducted with a scintillation counter. To determine the amount of specific binding, the amount of binding in the presence of excess unlabeled serotonin (10 μM) was subtracted from the total amount of binding. As an index for the affinity of a test compound for either receptor, the concentration at which the specific binding of ^3 H-DPAT was inhibited by 50% (IC50, M) was determined using computer software EBDA/LIGAND (Biosoft)."}, "[6]": {"tested_on": "S.D. line male rats", "assay": "Sedative action, amount of spontaneous movement (Animex)", "assay_type": "in vivo, rat", "conditions": "for Amount of Spontaneous Movement: control 405.2 ± 47.7", "protocol": "Seven-week old male S.D. line rats were administered a test drug perorally and after the passage of 30 min, the amount of spontaneous movement of the rats was measured for 10 min by means of Animex."}, "[7]": {"target": "T2, serotonin 2 receptor (Rattus norvegicus, UniProt P14842)", "T2 construct": "the cortex and hippocampal tissue were extracted from the brain; from tissue; host or cells: brain cortex and hippocampus of 7-week-old male S.D. rats, washed membrane homogenate", "T2 sequence (P14842 whole entry)": "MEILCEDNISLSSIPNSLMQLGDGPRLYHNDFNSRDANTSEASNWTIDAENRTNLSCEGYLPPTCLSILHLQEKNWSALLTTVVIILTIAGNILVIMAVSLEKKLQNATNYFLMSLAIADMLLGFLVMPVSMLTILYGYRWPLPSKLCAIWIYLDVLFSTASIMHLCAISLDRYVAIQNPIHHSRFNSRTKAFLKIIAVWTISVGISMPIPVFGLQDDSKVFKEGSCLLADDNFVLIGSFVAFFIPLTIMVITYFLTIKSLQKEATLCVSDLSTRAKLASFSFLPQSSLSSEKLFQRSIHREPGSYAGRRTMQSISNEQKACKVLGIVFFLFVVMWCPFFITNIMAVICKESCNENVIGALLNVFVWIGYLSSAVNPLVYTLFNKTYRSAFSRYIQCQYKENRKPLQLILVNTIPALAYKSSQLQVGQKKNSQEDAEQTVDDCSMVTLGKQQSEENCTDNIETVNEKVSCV", "assay": "Serotonin 2 receptor binding experiment (3H-ketancerine)", "conditions": "rat cortex and hippocampal tissue; 0.5 nM 3H-ketancerine; IC50 in M; read-out: -logIC50 5-HT2 (converted)", "protocol": "as §3, §4, §5\nA reaction solution containing 0.5 nM (final concentration) of ^3 H-ketancerine and 500 μl of brain homogenate in 1.0 ml (final volume) of a buffer was incubated at 30° C. for 30 min. Subsequent procedures were the same as in the serotonin 1A receptor binding experiment and IC50 (M) was determined accordingly. To determine the amount of specific binding, the amount of binding in the presence of excess unlabelled methysergide ([…]) was subtracted from the total amount of binding."}}, "note": "Entries after “also recorded” stand apart in the source; their conditions may differ. Where two headings read alike, the source gives them in different places.", "data": [{"smiles": "CC1(C)CC(=O)N(CCCCN2CCN(c3ncccn3)CC2)C(=O)C1", "note": "[Gepirone]", "values": [{"measurement": "Antianxiety/antidepressant action (words, background)", "setting": "[1]", "value": "only weak antidepressant and antianxiety effects; also recorded: both antianxiety and antidepressant effects"}, {"measurement": "Side effects (words, background)", "setting": "[1]", "value": "either lower ultromotivity (probably due to the dopamine antagonistic action) or serotonin syndrome"}]}, {"smiles": "O=C1CC2(CCCC2)CC(=O)N1CCCCN1CCN(c2ncccn2)CC1", "note": "[Buspirone]", "values": [{"measurement": "change in vivo at 20 mg/kg", "setting": "[2]", "value": "37.5 ± 4.7", "unit": "%"}, {"measurement": "Apomorphine Induced Stereotypic Behavior, sum of scores", "setting": "[3]; 10 mg/kg peroral, control 14.4 ± 0.9", "value": 10.3}, {"measurement": "Apomorphine Induced Stereotypic Behavior, sum of scores", "setting": "[3]; 20 mg/kg peroral, control 14.4 ± 0.9 (Comp. 1: 16.0 ± 1.1)", "value": 0.7}, {"measurement": "Apomorphine Induced Stereotypic Behavior, sum of scores", "setting": "[3]; 40 mg/kg peroral, control 14.4 ± 0.9", "value": 0.2}, {"measurement": "Antidopamine action", "setting": "[3]; peroral, apomorphine 0.5 mg/kg s.c.", "value": "stereotypic behavior induced by apomorphine was intensely compelled"}, {"measurement": "inhibition in vivo at 20 mg/kg", "setting": "[4]", "value": "-25.2 ± 3.9", "unit": "%"}]}, {"smiles": "O=C1CC2(CCCC2)CC(=O)N1CCNCC1COc2ccccc2O1", "note": "(stereo not drawn) [MDL-73005, reference compound]", "values": [{"measurement": "IC50", "setting": "[5]; read-out: -logIC50 5-HT1A (converted)", "value": 36.3, "unit": "nM"}, {"measurement": "change in vivo at 20 mg/kg", "setting": "[2]", "value": "67.6 ± 5.5", "unit": "%"}, {"measurement": "Antianxiety effect, longevity", "setting": "[2]; 0.5 h after administration", "value": 44.9}, {"measurement": "Antianxiety effect, longevity", "setting": "[2]; 2.0 h after administration", "value": 17.0}, {"measurement": "Antianxiety effect, longevity", "setting": "[2]; 4.0 h after administration", "value": 8.1}, {"measurement": "Amount of Spontaneous Movement", "setting": "[6]; 20 mg/kg peroral", "value": 395.8, "unit": "Counts/10 min"}, {"measurement": "Amount of Spontaneous Movement", "setting": "[6]; 40 mg/kg peroral", "value": 331.5, "unit": "Counts/10 min"}, {"measurement": "Amount of Spontaneous Movement", "setting": "[6]; 60 mg/kg peroral", "value": 335.0, "unit": "Counts/10 min"}, {"measurement": "Sedative action / spontaneous movement", "setting": "[6]; peroral 20-60 mg/kg", "value": "no appreciable sedative action"}, {"measurement": "IC50", "setting": "[7]", "value": "> 1000", "unit": "nM"}, {"measurement": "inhibition in vivo at 20 mg/kg", "setting": "[4]", "value": "28.3 ± 10.9", "unit": "%"}, {"measurement": "Antidepressant effect", "setting": "[4]", "value": "extremely weak antidepressant effect"}]}, {"smiles": "O=C1C2C3CCC(C3)C2C(=O)N1CCCCN1CCN(c2ncccn2)CC1", "note": "(stereo not drawn) [SM-3997, reference compound]", "values": [{"measurement": "IC50", "setting": "[5]; -logIC50 5-HT1A", "value": 31.6, "unit": "nM"}, {"measurement": "change in vivo at 20 mg/kg", "setting": "[2]", "value": "48.5 ± 15.8", "unit": "%"}, {"measurement": "IC50", "setting": "[7]", "value": 550, "unit": "nM"}, {"measurement": "inhibition in vivo at 20 mg/kg", "setting": "[4]", "value": "-10.5 ± 10.6", "unit": "%"}]}]}
